Experimental findings from patent US20090246169A1, “INDOLOPYRIDINES AS EG5 KINESIN MODULATORS” (priority 2006, published 2009) are described below.

Assay [1] deals with T1, Eg5 kinesin motor domains (Homo sapiens, UniProt P52732).
T1 construct: The ATPase activity of Eg5 kinesin motor domains (Cytoskeleton, cat. No. EG01); purchased Cytoskeleton EG01
T1 sequence (P52732 18-359 limits assumed): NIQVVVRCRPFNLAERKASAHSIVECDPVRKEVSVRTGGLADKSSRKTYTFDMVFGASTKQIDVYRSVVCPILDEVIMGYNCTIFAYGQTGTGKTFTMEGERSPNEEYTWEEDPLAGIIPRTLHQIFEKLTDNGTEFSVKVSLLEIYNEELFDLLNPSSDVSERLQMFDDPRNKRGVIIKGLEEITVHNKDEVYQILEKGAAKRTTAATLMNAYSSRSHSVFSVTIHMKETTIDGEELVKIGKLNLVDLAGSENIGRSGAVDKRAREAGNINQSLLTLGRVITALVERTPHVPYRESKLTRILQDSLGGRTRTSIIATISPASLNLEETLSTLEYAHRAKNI
In words: Eg5 ATPase activity assay (Malachite green). The assay is classed as biochemical. Particulars: 300 μM ATP, 250 nM microtubules, 30 min room temperature, read-out: Inhibition of Eg5 activity, −log IC50 [mol/l] (converted). Here is the method:
The ATPase activity of Eg5 kinesin motor domains (Cytoskeleton, cat. No. EG01) can be used to monitor the effects of modulating agents. The test compounds are dissolved as 10 mM solutions in dimethylsulfoxide (DMSO). 2 μl of appropriate DMSO dilutions of the test compounds are added to each well of a 96 well flat bottom plate. Each compound dilution is tested as triplicates. The reagents are added and the final reaction of the standard assay contains 15 mM Pipes, pH 6.8, 5.0 mM MgCl2, 0.5 mM KCl, 1 mM EGTA, 0.1 mg/ml BSA, 1 μM Paclitaxel, 250 nM preformed microtubules (Cytoskeleton, cat. No. MT001), 300 μM ATP, and Eg5 protein (50 ng) in a reaction volume of 100 μl. The controls include buffer wells with ATP and 2% DMSO. Reactions are started by the addition of ATP, incubated at room temperature for 30 min., and terminated by removing 20 μl of the reaction volume and adding it to 80 μl of 1 M perchloric acid, followed by the addition of 80 μl Malachite green reagent. […] The reactions are incubated for a further 20 min. and then read at 615 nm.
The corresponding IC50 values of the compounds for Eg5 inhibition are determined from the concentration-effect curves.
Representative inhibitory values [measured as −log IC50 (mol/l)] determined in the aforementioned assay follow from the following table A, in which the numbers of the compounds correspond to the numbers of the examples.

For assay [2], the system named is RKO p27 colon adenocarcinoma cells, induced (arrested). In words: Alamar Blue cell viability assay, RKO p27 induced (arrested) by Ponasterone A. The assay is classed as cell-based. Particulars: Homo sapiens, RKOp27; anti-proliferative/cytotoxic activity, 72 hours, 10 μM Ponasterone A; read-out: −log EC50 [mol/l] RKO p27 induced (arrested) (converted). As to the method:
To determine the cell cycle specific mode of action, subclones of RKO colon adenocarcinoma cells (RKOp21 or RKOp27 as described by Schmidt et al. in Oncogene 19, 2423-2429; 2000) are seeded into 96 well flat bottom plates at a density of 16000 cells per well in a volume of 50 μl per well in DMEM growth medium with 10% FCS containing 10 μM Ponasterone A. 24 hours after seeding the 50 μl each of the compound dilutions in DMEM medium are added into each well of the 96-well plate. Each compound dilution is tested as triplicates. Wells containing untreated control cells are filled with 50 μl DMEM medium containing 1% DMSO. The cells are then incubated with the substances for 72 hours at 37° C. in a humidified atmosphere containing 5% carbon dioxide. To determine the viability of the cells, 10 μl of an Alamar Blue solution (Biosource) are added and the fluorescence is measured at an extinction of 544 nm and an emission of 590 nm. […] Viabilities are expressed as % values. […]
Representative values for anti-proliferation/cytotoxicity [measured as −log EC50 (mol/l)] determined in the aforementioned assays follow from the following tables B1 and B2, in which the numbers of the compounds correspond to the numbers of the examples.

Assay [3] deals with RKO p27 colon adenocarcinoma cells, uninduced (proliferating). In words: Alamar Blue cell viability assay, RKO p27 uninduced (proliferating). It is filed as cell-based. Particulars: Homo sapiens, RKOp27; anti-proliferative/cytotoxic activity, 72 hours, without Ponasterone A; read-out: −log EC50 [mol/l] RKO p27 uninduced (proliferating) (converted). As to the method: The anti-proliferative/cytotoxic activity of the compounds described herein can be tested on subclones of RKO human colon adenocarcinoma cells (Schmidt et al., Oncogene 19, 2423-2429; 2000) using the Alamar Blue cell viability assay (described in O'Brien et al. Eur J Biochem 267, 5421-5426, 2000). The compounds are dissolved as 10 mM solutions in DMSO and subsequently diluted in semi-logarithmic steps. DMSO dilutions are further diluted 1:100 into Dulbecco's modified Eagle's medium (DMEM) containing 10% fetal calf serum to a final concentration twice as much as the final concentration in the test. […] To determine the viability of the cells, 10 μl of an Alamar Blue solution (Biosource) are added and the fluorescence is measured at an extinction of 544 nm and an emission of 590 nm. […] Viabilities are expressed as % values. […]
To determine the cell cycle specific mode of action, subclones of RKO colon adenocarcinoma cells (RKOp21 or RKOp27 as described by Schmidt et al. in Oncogene 19, 2423-2429; 2000) are seeded into 96 well flat bottom plates at a density of 16000 cells per well in a volume of 50 μl per well in DMEM growth medium with 10% FCS containing 10 μM Ponasterone A. 24 hours after seeding the 50 μl each of the compound dilutions in DMEM medium are added into each well of the 96-well plate. […] Viabilities are expressed as % values. […]

Assay [4] deals with RKO p21 colon adenocarcinoma cells, uninduced (proliferating). In words: Alamar Blue cell viability assay, RKO p21 uninduced (proliferating). The assay is classed as cell-based. The settings on record: Homo sapiens; anti-proliferative/cytotoxic activity, 72 hours, without Ponasterone A; read-out: −log EC50 [mol/l] RKO p21 uninduced (proliferating) (converted). The method, boiled down: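 Proliferating RKO subclones, no Ponasterone A inducer, seeded in DMEM/10% FCS and dosed after 24 h with semi-log dilutions in triplicate, 72 h at 37 °C, 5% CO2. Viability by Alamar Blue fluorescence (544/590 nm) vs untreated cells; EC50 from dose-response curves.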

As to `COc1ccc2[nH]c3c(c2c1)C[C@@]1(C)C(=O)N(CCN(C)C)C(=O)N1[C@@H]3c1ccccc1` (racemic) [Example 1, (3aSR,10RS)-2-(2-Dimethylamino-ethyl)-6-methoxy-3a-methyl-10-phenyl-3a,4,9,10-tetrahydro-2,9,10a-triaza-cyclopenta[b]fluorene-1,3-dione], the IC50 in assay [1] is 31.6 nM. The figures for the EC50 in assay [2] and in assay [3] were at least 10000 nM and 63.1 nM, respectively.
`COc1ccc2[nH]c3c(c2c1)C[C@@]1(C)C(=O)N(CCCN2CCC2)C(=O)N1[C@@H]3c1ccccc1` (racemic) [Example 60, (3aSR, 10RS)-2-(3-Azetidin-1-yl-propyl)-6-methoxy-3a-methyl-10-phenyl-3a,4,9,10-tetrahydro-2,9,10a-triaza-cyclopenta[b]fluorene-1,3-dione]: the EC50 in assay [4] is at most 1000 nM.
Turning to `CNCCN1C(=O)N2[C@H](c3ccccc3)c3[nH]c4ccc(OC)cc4c3C[C@@]2(C)C1=O` (racemic) [Example 14, (3aSR,10RS)-6-Methoxy-3a-methyl-2-(2-methylamino-ethyl)-10-phenyl-3a,4,9,10-tetrahydro-2,9,10a-triaza-cyclopenta[b]fluorene-1,3-dione], in assay [4], the EC50 is at most 1000 nM.
The same measure, in the same setting: for `COc1ccc2[nH]c3c(c2c1)C[C@@]1(C)C(=O)N(CCCn2ccnc2)C(=O)N1[C@@H]3c1ccccc1` (racemic) [Example 63, (3aSR, 10RS)-2-(3-Imidazol-1-yl-propyl)-6-methoxy-3a-methyl-10-phenyl-3a,4,9,10-tetrahydro-2,9,10a-triaza-cyclopenta[b]fluorene-1,3-dione] the value was at most 1000 nM.
Still for that read-out and setting: for `COc1ccc2[nH]c3c(c2c1)C[C@@]1(C)C(=O)N(CCNC(C)(C)C)C(=O)N1[C@@H]3c1ccccc1` (racemic) [Example 27, (3aSR, 10RS)-2-(2-tert-Butylamino-ethyl)-6-methoxy-3a-methyl-10-phenyl-3a,4,9,10-tetrahydro-2,9,10a-triaza-cyclopenta[b]fluorene-1,3-dione] the value was at most 1000 nM; for `COc1ccc2[nH]c3c(c2c1)C[C@@]1(C)C(=O)N(CCN2CC=CCC2)C(=O)N1[C@@H]3c1ccccc1` (racemic) [Example 33, (3aSR, 10RS)-2-[2-(3,6-Dihydro-2H-pyridin-1-yl)-ethyl]-6-methoxy-3a-methyl-10-phenyl-3a,4,9,10-tetra-hydro-2,9,10a-triaza-cyclo-penta[b]fluorene-1,3-dione], at most 1000 nM; for `COc1ccc2[nH]c3c(c2c1)C[C@@]1(C)C(=O)N(C)C(=O)N1[C@@H]3c1ccccc1` (racemic) [Example 2, (3aSR,10RS)-6-Methoxy-2,3a-dimethyl-10-phenyl-3a,4,9,10-tetrahydro-2,9,10a-triaza-cyclopenta[b]fluorene-1,3-dione], at most 1000 nM.
